Data published in patent publication US20240252524A1 (Hovione Scientia Limited, priority 2021, published 2024).
Where “and” joins values, the source holds several entries; their conditions need not be identical. Identical values can stand only once. Like-named read-outs stand apart in the source and are kept apart here.

Experiments:
[1] = Particle size by laser diffraction (Sympatec HELOS) before/after high shear mixing; format: physicochemical
Source text: The particle size data were obtained from a Sympatec module HELOS (Helium-Neon Laser Optical System), dispersion Unit RODOS/M, potent products accessory ASPIROS, lens R5 (4.50 μm-875 μm) and R4 (1.80 μm-350 μm), conditions R5, 0.1 bar-1 bar, 18 mm/s, R4, 3 bar, 18 mm/s

[2] = Stability of ivermectin under the high shear mixer process; format: physicochemical; settings: high shear mixer process of the invention
Source text: Under the conditions set forth in this invention, ivermectin is submitted to high shear forces without suffering decomposition. High shear mixing processes provide stressful conditions which promote decomposition of the compounds submitted to such processes. The stressful conditions involve recirculating mixtures of the compounds with solvents, at very high speed, through mechanical systems which generate unaligned forces, driving to strong collisions between the particles and the mechanical parts of the high shear mixer and between the particles themselves. Such collisions break the particles of the product thus reducing their particle size. A side effect of the mechanical collisions is a significant increase in the temperature during the high shear mixer process. […] In fact, ivermectin is purified with good yields under the high shear process conditions set forth in this invention.

[3] = room temperature, cited from earlier work
[4] = cited from earlier work
[5] = cited from earlier work; remark: listed apart in the source

Substance: Ivermectin
- D (90) after high shear mixing ([1]; Example 1: ethanol/water/formamide/methylparaben, 2000 RPM, about 3 hours, 0-5° C.): 56 μm
- Dv(90) after high shear mixing ([1]; Example 2: ethanol/water/formamide/BHA, 2000 RPM, about 3 hours, 0-5° C.): 53 μm
- Dv(90) after high shear mixing ([1]; Example 3: ethanol (100 ml)/water (50 ml)/formamide/methylparaben, 2000 RPM, about 3 hours, 0-5° C.): 57 μm
- Dv(90) after high shear mixing ([1]; Example 4: water/isopropanol/formamide/methylparaben, 2000 RPM, about 3 hours, 0-5° C.): 56 μm
- Dv(90) after high shear mixing ([1]; Example 5: water (16 ml)/ethanol (16 ml)/formamide, 1000 RPM, about 2 hours, 0-5° C.): 42 μm
- Dv(90) after high shear mixing ([1]; Example 6: water (26 ml)/ethanol (30 ml)/formamide, 1000 RPM, about 2 hours, 0-5° C.): 36 μm
- Dv(90) after high shear mixing ([1]; Example 7: water (1 ml)/ethanol (30 ml)/formamide, 1000 RPM, about 2 hours, 0-5° C.): 56 μm
- D (90) / Dv(90) of starting ivermectin ([1]; before high shear mixing): 301 μm and 295 μm and 300 μm
- decomposition under high shear mixer process [2]: did not decompose the product
- Pharmacopoeia Classification ([3]; Acetone): Soluble
- Solubility ([3]; Acetone): 81 mg/mL
- Pharmacopoeia Classification ([3]; Diethyl ether): Soluble
- Solubility ([3]; Diethyl ether): 61 mg/mL
- Pharmacopoeia Classification ([3]; Dimethylformamide): Freely soluble
- Solubility ([3]; Dimethylformamide): 510 mg/mL
- Pharmacopoeia Classification ([3]; Ethanol): Soluble
- Solubility ([3]; Ethanol): 97 mg/mL
- Pharmacopoeia Classification ([3]; Ethyl acetate): Freely soluble
- Solubility ([3]; Ethyl acetate): 240 mg/mL
- Pharmacopoeia Classification ([3]; Isopropanol (2-propanol)): Soluble
- Solubility ([3]; Isopropanol (2-propanol)): 70 mg/mL
- Pharmacopoeia Classification ([3]; Methanol): Freely soluble
- Solubility ([3]; Methanol): 220 mg/mL
- Pharmacopoeia Classification ([3]; Methyl Ethyl ketone): Freely soluble
- Solubility ([3]; Methyl Ethyl ketone): 320 mg/mL
- Pharmacopoeia Classification ([3]; Tetrahydrofuran): Freely soluble
- Solubility ([3]; Tetrahydrofuran): 390 mg/mL
- Pharmacopoeia Classification ([3]; Toluene): Soluble
- Solubility ([3]; Toluene): 63 mg/mL
- Pharmacopoeia Classification ([3]; Water): Practically Insoluble
- Solubility ([3]; Water): 0.000001 mg/mL
- Pharmacopoeia Classification ([3]; n-Hexane): Slightly soluble
- Solubility ([3]; n-Hexane): 0.69 mg/mL
- Pharmacopoeia Classification ([3]; p-Dioxane): Freely soluble
- Solubility ([3]; p-Dioxane): 430 mg/mL
- optimum pH for ivermectin stability in solution [4]: 6.3
- solubility in water [5]: low solubility in water
